Source: paper PMC10986521 (Microbiology Spectrum, 2024)

Biological target: T1, FMDV 3Cpro (Foot-and-mouth disease virus A, UniProt A0A097I315)
Assay: biochemical
Design: species or system FMDV A/IND287/96 strain (serotype A)
Conditions: FRET assay (IC50)

SMILES | IC50 [nM]
CCC[C@@H]1C[C@H]1COC(=O)N[C@@H](CC(C)C)C(=O)N[C@H](C=O)C[C@H]1CCNC1=O [Compound C13c] | 1550 ± 70
CCC[C@@H]1C[C@H]1COC(=O)N[C@@H](CC(C)C)C(=O)N[C@@H](C[C@H]1CCNC1=O)C(O)S(=O)(=O)O (stereo partly drawn) [Compound C13d] | 750 ± 70
CCC[C@@H]1C[C@@H]1COC(=O)N[C@@H](CC(C)C)C(=O)N[C@H](C=O)C[C@H]1CCNC1=O [Compound C14c] | 630 ± 100
CCC[C@@H]1C[C@@H]1COC(=O)N[C@@H](CC(C)C)C(=O)N[C@@H](C[C@H]1CCNC1=O)C(O)S(=O)(=O)O (stereo partly drawn) [Compound C14d] | 1050 ± 640
CC(C)C[C@H](NC(=O)OC[C@@H]1C[C@H]1C1CCCCC1)C(=O)N[C@H](C=O)C[C@H]1CCNC1=O [Compound C15c] | 380 ± 110
CC(C)C[C@H](NC(=O)OC[C@@H]1C[C@H]1C1CCCCC1)C(=O)N[C@@H](C[C@H]1CCNC1=O)C(O)S(=O)(=O)O (stereo partly drawn) [Compound C15d] | 290 ± 80
CC(C)C[C@H](NC(=O)OC[C@@H]1C[C@H]1CC1CCCCC1)C(=O)N[C@H](C=O)C[C@H]1CCNC1=O [Compound C16c] | 360 ± 90
CC(C)C[C@H](NC(=O)OC[C@@H]1C[C@H]1CC1CCCCC1)C(=O)N[C@@H](C[C@H]1CCNC1=O)C(O)S(=O)(=O)O (stereo partly drawn) [Compound C16d] | 330 ± 40
CC(C)C[C@H](NC(=O)OC[C@@H]1C[C@H]1C1CCC(F)(F)CC1)C(=O)N[C@H](C=O)C[C@H]1CCNC1=O [Compound C17c] | 650 ± 70
CC(C)C[C@H](NC(=O)OC[C@@H]1C[C@H]1C1CCC(F)(F)CC1)C(=O)N[C@@H](C[C@H]1CCNC1=O)C(O)S(=O)(=O)O (stereo partly drawn) [Compound C17d] | 750 ± 90
CC(C)C[C@H](NC(=O)OCC(C)(C)Sc1ccccc1)C(=O)N[C@@H](C[C@@H]1CCNC1=O)C(=O)C(=O)NC1CC1 [Compound D1e] | 3750 ± 70

Biological target: T1, FMDV 3Cpro
Assay: cell-based
Design: species or system FMDV A/IND287/96 strain
Conditions: Cell-based assay (EC50)

SMILES | EC50 [nM]
CCC[C@@H]1C[C@H]1COC(=O)N[C@@H](CC(C)C)C(=O)N[C@H](C=O)C[C@H]1CCNC1=O [Compound C13c] | 2950 ± 210
CCC[C@@H]1C[C@H]1COC(=O)N[C@@H](CC(C)C)C(=O)N[C@@H](C[C@H]1CCNC1=O)C(O)S(=O)(=O)O (stereo partly drawn) [Compound C13d] | 3100 ± 420
CCC[C@@H]1C[C@@H]1COC(=O)N[C@@H](CC(C)C)C(=O)N[C@H](C=O)C[C@H]1CCNC1=O [Compound C14c] | 7050 ± 780
CCC[C@@H]1C[C@@H]1COC(=O)N[C@@H](CC(C)C)C(=O)N[C@@H](C[C@H]1CCNC1=O)C(O)S(=O)(=O)O (stereo partly drawn) [Compound C14d] | 6300 ± 850
CC(C)C[C@H](NC(=O)OC[C@@H]1C[C@H]1C1CCCCC1)C(=O)N[C@H](C=O)C[C@H]1CCNC1=O [Compound C15c] | 450 ± 50
CC(C)C[C@H](NC(=O)OC[C@@H]1C[C@H]1C1CCCCC1)C(=O)N[C@@H](C[C@H]1CCNC1=O)C(O)S(=O)(=O)O (stereo partly drawn) [Compound C15d] | 500 ± 110
CC(C)C[C@H](NC(=O)OC[C@@H]1C[C@H]1CC1CCCCC1)C(=O)N[C@H](C=O)C[C@H]1CCNC1=O [Compound C16c] | 900 ± 60
CC(C)C[C@H](NC(=O)OC[C@@H]1C[C@H]1CC1CCCCC1)C(=O)N[C@@H](C[C@H]1CCNC1=O)C(O)S(=O)(=O)O (stereo partly drawn) [Compound C16d] | 1210 ± 480
CC(C)C[C@H](NC(=O)OC[C@@H]1C[C@H]1C1CCC(F)(F)CC1)C(=O)N[C@H](C=O)C[C@H]1CCNC1=O [Compound C17c] | > 10000
CC(C)C[C@H](NC(=O)OC[C@@H]1C[C@H]1C1CCC(F)(F)CC1)C(=O)N[C@@H](C[C@H]1CCNC1=O)C(O)S(=O)(=O)O (stereo partly drawn) [Compound C17d] | > 10000
CC(C)C[C@H](NC(=O)OCC(C)(C)Sc1ccccc1)C(=O)N[C@@H](C[C@@H]1CCNC1=O)C(=O)C(=O)NC1CC1 [Compound D1e] | 5000 ± 280

Tested on: not listed separately
Assay: in vitro
Conditions: human

SMILES | CC50 [nM]
CCC[C@@H]1C[C@H]1COC(=O)N[C@@H](CC(C)C)C(=O)N[C@H](C=O)C[C@H]1CCNC1=O [Compound C13c] | > 50000
CCC[C@@H]1C[C@H]1COC(=O)N[C@@H](CC(C)C)C(=O)N[C@@H](C[C@H]1CCNC1=O)C(O)S(=O)(=O)O (stereo partly drawn) [Compound C13d] | > 50000
CCC[C@@H]1C[C@@H]1COC(=O)N[C@@H](CC(C)C)C(=O)N[C@H](C=O)C[C@H]1CCNC1=O [Compound C14c] | > 50000
CCC[C@@H]1C[C@@H]1COC(=O)N[C@@H](CC(C)C)C(=O)N[C@@H](C[C@H]1CCNC1=O)C(O)S(=O)(=O)O (stereo partly drawn) [Compound C14d] | > 50000
CC(C)C[C@H](NC(=O)OC[C@@H]1C[C@H]1C1CCCCC1)C(=O)N[C@H](C=O)C[C@H]1CCNC1=O [Compound C15c] | > 50000
CC(C)C[C@H](NC(=O)OC[C@@H]1C[C@H]1C1CCCCC1)C(=O)N[C@@H](C[C@H]1CCNC1=O)C(O)S(=O)(=O)O (stereo partly drawn) [Compound C15d] | > 50000
CC(C)C[C@H](NC(=O)OC[C@@H]1C[C@H]1CC1CCCCC1)C(=O)N[C@H](C=O)C[C@H]1CCNC1=O [Compound C16c] | > 50000
CC(C)C[C@H](NC(=O)OC[C@@H]1C[C@H]1CC1CCCCC1)C(=O)N[C@@H](C[C@H]1CCNC1=O)C(O)S(=O)(=O)O (stereo partly drawn) [Compound C16d] | > 50000
CC(C)C[C@H](NC(=O)OC[C@@H]1C[C@H]1C1CCC(F)(F)CC1)C(=O)N[C@H](C=O)C[C@H]1CCNC1=O [Compound C17c] | > 50000
CC(C)C[C@H](NC(=O)OC[C@@H]1C[C@H]1C1CCC(F)(F)CC1)C(=O)N[C@@H](C[C@H]1CCNC1=O)C(O)S(=O)(=O)O (stereo partly drawn) [Compound C17d] | > 50000
CC(C)C[C@H](NC(=O)OCC(C)(C)Sc1ccccc1)C(=O)N[C@@H](C[C@@H]1CCNC1=O)C(=O)C(=O)NC1CC1 [Compound D1e] | > 50000
